Assays:
Format in all cases: in vivo
Chilo suppressalis = assay: Example B1: Chilo suppressalis (striped rice stemborer), artificial diet, L2 larvae; details: 144 h, application rate of 200 ppm, 6 days after infestation, read-out: control in at least one of the three categories (mortality, anti-feedant effect, or growth inhibition)
Description: 24-well microtiter plates with artificial diet were treated with aqueous test solutions prepared from 10,000 ppm DMSO stock solutions by pipetting. After drying, the plates were infested with L2 larvae (6-8 per well). The samples were assessed for mortality, anti-feeding effect, and growth inhibition in comparison to untreated samples 6 days after infestation. Control of Chilo suppressalis by a test sample is given when at least one of the categories mortality, anti-feedant effect, and growth inhibition is higher than the untreated sample.

Plutella xylostella = assay: Example B4: Plutella xylostella (diamond back moth), artificial diet, eggs; details: Plutella xylostella, 192 h; application rate of 200 ppm; 8 days after infestation; read-out: control in at least one of the two categories (mortality or growth inhibition)
Description: 24-well microtiter plates with artificial diet were treated with aqueous test solutions prepared from 10′000 ppm DMSO stock solutions by pipetting. After drying, Plutella eggs were pipetted through a plastic stencil onto a gel blotting paper and the plate was closed with it. The samples were assessed for mortality and growth inhibition in comparison to untreated samples 8 days after infestation.

Myzus persicae [1] = assay: Example B9: Myzus persicae (green peach aphid) feeding/contact activity, sunflower leaf discs; details: foliar, 144 h, application rate of 200 ppm, 6 days after infestation
Description: Sunflower leaf discs were placed onto agar in a 24-well microtiter plate and sprayed with aqueous test solutions prepared from 10,000 ppm DMSO stock solutions. After drying, the leaf discs were infested with an aphid population of mixed ages. The samples were assessed for mortality 6 days after infestation.

Diabrotica balteata = assay: Example B2: Diabrotica balteata (corn root worm), maize sprouts, L2 larvae; details: for percent control (mortality or growth inhibition) at 200 ppm: Diabrotica balteata, 96 h, application rate of 200 ppm, 4 days after infestation, read-out: control in at least one of the two categories (mortality or growth inhibition)
Description: Maize sprouts placed onto an agar layer in 24-well microtiter plates were treated with aqueous test solutions prepared from 10,000 ppm DMSO stock solutions by spraying. After drying, the plates were infested with L2 larvae (6 to 10 per well). The samples were assessed for mortality and growth inhibition in comparison to untreated samples 4 days after infestation.

Myzus persicae [2] = assay: Example B3: Myzus persicae (green peach aphid) intrinsic activity; details: 120 h, test rate of 12 ppm, 5 days after infestation
Description: Test compounds prepared from 10′000 ppm DMSO stock solutions were applied by pipette into 24-well microtiter plates and mixed with sucrose solution. The plates were closed with a stretched Parafilm. A plastic stencil with 24 holes was placed onto the plate and infested pea seedlings were placed directly on the Parafilm. The infested plate was closed with a gel blotting paper and another plastic stencil and then turned upside down. The samples were assessed for mortality 5 days after infestation.

Spodoptera littoralis = assay: Example B5: Spodoptera littoralis (Egyptian cotton leaf worm), cotton leaf discs, L1 larvae; details: foliar, 72 h, application rate of 200 ppm, 3 days after infestation, read-out: control in at least one of the three categories (mortality, anti-feedant effect, or growth inhibition)
Description: Cotton leaf discs were placed onto agar in 24-well microtiter plates and sprayed with aqueous test solutions prepared from 10,000 ppm DMSO stock solutions. After drying the leaf discs were infested with five L1 larvae. The samples were assessed for mortality, anti-feeding effect, and growth inhibition in comparison to untreated samples 3 days after infestation. Control of Spodoptera littoralis by a test sample is given when at least one of the categories mortality, anti-feedant effect, and growth inhibition is higher than the untreated sample.

SMILES | percent control (mortality, anti-feedant effect or growth inhibition) at 200 ppm (Chilo suppressalis) | percent control (mortality or growth inhibition) at 200 ppm (Plutella xylostella) | mortality at 200 ppm (Myzus persicae [1]) | percent control (mortality or growth inhibition) at 200 ppm (Diabrotica balteata) | mortality at 12 ppm (Myzus persicae [2]) | percent control (mortality, anti-feedant effect or growth inhibition) at 200 ppm (Spodoptera littoralis) | mortality at 50 ppm (Diabrotica balteata; Concentration 50 ppm, Diabrotica balteata (Example B32))
Cc1cc(C(=O)NC(C)c2nccnc2-c2cnccn2)cc(C(F)(F)F)c1 (stereo not drawn) [Compound P18, 3-methyl-N-[1-(3-pyrazin-2-ylpyrazin-2-yl)ethyl]-5-(trifluoromethyl)benzamide] | ≥ 80% | ≥ 80% | ≥ 80% | – | – | – | –
CC(NC(=O)c1cc(C(F)(F)F)cc(S(C)(=O)=O)c1)c1nccnc1-c1cnccn1 (stereo not drawn) [Compound P16, 3-methylsulfonyl-N-[1-(3-pyrazin-2-ylpyrazin-2-yl)ethyl]-5-(trifluoromethyl)benzamide] | ≥ 80% | ≥ 80% | – | ≥ 80% | ≥ 80% | ≥ 80% | –
CC(NC(=O)c1cc(OC(F)(F)F)cc(C2(C#N)CC2)c1)c1nccnc1-c1cnccn1 (stereo not drawn) [Compound P31] | ≥ 80% | ≥ 80% | – | ≥ 80% | ≥ 80% | ≥ 80% | –
CC(NC(=O)c1cc(F)cc(C(F)(F)F)c1)c1nccnc1-c1cnccn1 (stereo not drawn) [Compound P25, 3-fluoro-N-[1-(3-pyrazin-2-ylpyrazin-2-yl)ethyl]-5-(trifluoromethyl)benzamide] | – | ≥ 80% | ≥ 80% | – | – | – | –
CC(NC(=O)c1cc(OC(F)F)cc(OC(F)F)c1)c1nccnc1-c1cnccn1 (stereo not drawn) [Compound P2, 3,5-bis(difluoromethoxy)-N-[1-(3-pyrazin-2-ylpyrazin-2-yl)ethyl]benzamide] | ≥ 80% | ≥ 80% | – | ≥ 80% | ≥ 80% | ≥ 80% | –
CC(NC(=O)c1cc(Cl)nc(C(F)(F)F)c1)c1nccnc1-c1cnccn1 (stereo not drawn) [Compound P14, 2-chloro-N-[1-(3-pyrazin-2-ylpyrazin-2-yl)ethyl]-6-(trifluoromethyl)pyridine-4-carboxamide] | ≥ 80% | ≥ 80% | ≥ 80% | ≥ 80% | – | ≥ 80% | –
C[C@H](NC(=O)c1cc(C(F)(F)F)cc(C(C)(C)C#N)c1)c1nccnc1-c1cnccn1 [Compound E7] | ≥ 80% | ≥ 80% | – | ≥ 80% | ≥ 80% | ≥ 80% | –
CC(NC(=O)c1cc(C(F)(F)F)cc(C2(C#N)CC2)c1)c1nccnc1-c1cnccn1 (stereo not drawn) [Compound P21] | ≥ 80% | ≥ 80% | ≥ 80% | ≥ 80% | ≥ 80% | ≥ 80% | 100%
C[C@@H](c1nccnc1-c1cnccn1)N(C)C(=O)c1cc(C(F)(F)F)cc(C(C)(C)C#N)c1 [Compound E12, 3-(1-cyano-1-methyl-ethyl)-N-methyl-N-[(1S)-1-(3-pyrazin-2-ylpyrazin-2-yl)ethyl]-5-(trifluoromethyl)benzamide] | – | – | – | ≥ 80% | ≥ 80% | ≥ 80% | –
C[C@H](NC(=O)c1cc(C(F)F)cc(C(F)(F)F)c1)c1nccnc1-c1cnccn1 [Compound E8, 3-(difluoromethyl)-N-[(1S)-1-(3-pyrazin-2-ylpyrazin-2-yl)ethyl]-5-(trifluoromethyl)benzamide] | ≥ 80% | ≥ 80% | – | ≥ 80% | – | ≥ 80% | –
CC(NC(=O)c1cc(Cl)cc(S(C)(=O)=O)c1)c1nccnc1-c1cnccn1 (stereo not drawn) [Compound P26, 3-chloro-5-methylsulfonyl-N-[1-(3-pyrazin-2-ylpyrazin-2-yl)ethyl]benzamide] | ≥ 80% | ≥ 80% | – | ≥ 80% | ≥ 80% | ≥ 80% | –
CC(NC(=O)c1cc(C(F)(F)F)cc(C(F)(F)F)c1)c1nccnc1-c1cnccn1 (stereo not drawn) [Compound P1, N-[1-(3-pyrazin-2-ylpyrazin-2-yl)ethyl]-3,5-bis (trifluoromethyl)benzamide] | ≥ 80% | ≥ 80% | – | ≥ 80% | – | ≥ 80% | –
CC(NC(=O)c1cc(Br)cc(C(F)(F)F)c1)c1nccnc1-c1cnccn1 (stereo not drawn) [Compound P7, 3-bromo-N-[1-(3-pyrazin-2-ylpyrazin-2-yl)ethyl]-5-(trifluoromethyl)benzamide] | ≥ 80% | ≥ 80% | ≥ 80% | ≥ 80% | – | ≥ 80% | –
CC(NC(=O)c1cc(I)cc(I)c1)c1nccnc1-c1cnccn1 (stereo not drawn) [Compound P17, 3,5-diiodo-N-[1-(3-pyrazin-2-ylpyrazin-2-yl)ethyl]benzamide] | – | ≥ 80% | ≥ 80% | ≥ 80% | – | ≥ 80% | –
CC(NC(=O)c1cc(OC(F)F)cc(C(F)(F)F)c1)c1nccnc1-c1cnccn1 (stereo not drawn) [Compound P20] | ≥ 80% | ≥ 80% | – | ≥ 80% | ≥ 80% | ≥ 80% | –
CC(NC(=O)c1cc(Cl)cc(Br)c1)c1nccnc1-c1cnccn1 (stereo not drawn) [Compound P12, 3-bromo-5-chloro-N-[1-(3-pyrazin-2-ylpyrazin-2-yl)ethyl]benzamide] | – | ≥ 80% | ≥ 80% | ≥ 80% | – | ≥ 80% | –
C[C@H](NC(=O)c1cc(I)cc(C(F)(F)F)c1)c1nccnc1-c1cnccn1 [Compound E4, 3-iodo-N-[(1S)-1-(3-pyrazin-2-ylpyrazin-2-yl)ethyl]-5-(trifluoromethyl)benzamide] | ≥ 80% | ≥ 80% | – | ≥ 80% | – | ≥ 80% | –
CC(NC(=O)c1cc(OC(F)F)cc(C2(C#N)CC2)c1)c1nccnc1-c1cnccn1 (stereo not drawn) [Compound P32, 3-(1-cyanocyclopropyl)-5-(difluoromethoxy)-N-[1-(3-pyrazin-2-ylpyrazin-2-yl)ethyl]benzamide] | ≥ 80% | – | – | – | ≥ 80% | ≥ 80% | –
